In series [1] the test system is 4T1 breast cancer cell line. The experiment in a line: Seahorse glycostress assay (ECAR). The class given is cell-based, murine. Conditions: 4T1 cells, 6 h; for glycolytic inhibitory properties compared to NaDCA: 200 μM vs NaDCA 600 μM; for glycolysis inhibition (ECAR): compared with control group. The text has this:
FIGS. 3A-3C show cellular glycolysis inhibition by Mito-SilylDCA. Glycolytic inhibition efficacy of Mito-SilylDCA was investigated along with the components used for synthesizing Mito-SilylDCA. (FIG. 3A) Chemical structures of TPP-(CH2)5—COOH), methoxyl(octadecyldimethyl)silane, sodium dichloroacetate (NaDCA), Mito-DCA, and Mito-SilylDCA. (FIG. 3B) Extracellular acidification rate (ECAR) measured in 4T1, murine breast cancer cell line, upon treatment with the compounds mentioned in A. The cells were pre-treated with the test articles at the following concentration: TPP-(CH2)5—COOH (200 μM), methoxy (octadecyldimethyl)silane (200 μM), NaDCA (600 μM), Mito-DCA (200 μM), or Mito-Silyl-DCA (200 μM), for 6 h. Port injections for the seahorse glycostress assay included glucose (10 mM) in port A, oligomycin (1 μM) in port B, and 2-DG (50 mM) in port C. (FIG. 3C) Graphical representation quantifying the change in glycolysis, glycolytic capacity, and glycolytic reserve parameters upon treatment with test articles. The data in FIG. 3C was generated as an average from 3 independent biological replicates. The statistical significance between the treatment groups was measured by ordinary one-way analysis of variance (ANOVA) using multiple comparison.
Cellular glycolysis inhibition by Mito-SilylDCA. Glycolysis inhibitory efficacy of Mito-Silyl-DCA was investigated in 4T1 breast cancer cell line which is known to be aggressive and highly glycolytic in nature with an overexpression of PDK1.^6 The Seahorse glycostress assay was performed to understand the metabolic fluxes of glycolysis. The 4T1 cells grown in normoxia were treated with TPP-(CH2)5—COOH) (200 μM), methoxyl(octadecyldimethyl)silane (200 μM), NaDCA (600 μM), Mito-DCA (200 μM), or Mito-Silyl-DCA (200 μM) for 6 h followed by washing and returning the cells to a glucose-free medium (FIG. 3A). The extracellular acidification rate (ECAR) traces were then monitored in response to the sequential administration of glucose, oligomycin, and 2-deoxy-D-glucose (2-DG) to assess glycolysis, glycolytic capacity, and glycolytic reserve, respectively. […] The data shown here are average from three independent biological replicates.
Glycolysis inhibition in highly glycolytic cells. This example documented inhibition of glycolysis in 4T1 cells by Mito-SilylDCA using Seahorse glycostress assay (FIG. 3B). The Seahorse glycostress assay was performed to check the metabolic fluxes of glycolysis. 4T1 cells were treated with TPP-hexanoic acid (200 μM), methoxyl(octadecyldimethyl)silane (200 μM), sodium dichloroacetate (DCA) (600 μM), Mito-DCA (200 μM), or Mito-SilylDCA (200 μM) for 6 h followed by washout and returned to glycose-free medium. The extracellular acidification rate (ECAR) was monitored in response to the sequential administration of glucose, oligomycin, and 2-deoxy-D-glucose (2-DG) to assess glycolysis, glycolytic capacity, and glycolytic reserve, respectively (FIG. 3C).

The conditions of series [2]: mouse, in vivo.
Description: Thus, the experiment investigated the efficacy of T-Mito-SilylDCA-NPs in an in vivo mouse model in combination with a cisplatin prodrug, Platin-M^20-21. […] Thus for this study, luciferase tagged MDA-MB-231BR^Luc cells in Balb/c nude mice were used. The experiment implanted MDA-MB-231BR^Luc cells in the right flank of N=7 female Balb/c nude mice (FIG. 5A). […] Once the tumors were established, these animals were treated with a combination of T-Platin-M-NP and T-Mito-SilylDCA-NP in a sequential manner to inhibit first OXPHOS with T-Platin-M-NP^20 and simultaneous inhibition of resulting glycolysis T-Mito-SilylDCA-NP. This study included two groups: Group 1, saline with n=3 animals and group 2, combination of T-Platin-M-NPs and T-Mito-SilylDCA-NPs with n=4 animals (FIG. 5A). The tumor bearing animals were treated with saline or combination therapeutics for 4 weeks following a biweekly treatment regimen which involved tail i.v injections of 10 mg/kg dose of T-Platin-M-NP with respect to Platin-M 24 h prior to 30 mg/kg dose of T-Mito-Silyl-DCA-NP with respect to Mito-SilylDCA. […] All the images were taken at the same aperture and field of view was kept at 22.4 cm. […]
The present study administered T-Mito-SilylDCA to mice via intravenous injection and quantified the accumulation of NPs using ICP-MS analyses.
Series [3] is described as follows: Stability at different pH values by HPLC and LC-MS (Example 1). The format is physicochemical. Conditions: for degradation / stability at acidic pH: acidic pH (4.0); for stability in alkaline conditions: alkaline conditions (pH 9.5); for stability in alkaline conditions / hydrolysis in neutral conditions: DMF-water (2/1, v/v), room temperature; for hydrolysis in neutral conditions: neutral conditions (pH 7.4). As to the method:
FIGS. 2A-2B. Stability of Mito-SilylDCA at different pH values. Traces of HPLC plots of (FIG. 2A) Mito-SilylDCA and (FIG. 2B) Mito-DCA in solutions of different pH values along with plots of percent of the compound remained with time. A solution of Mito-SilylDCA or Mito-DCA in DMF-water (2/1, v/v) was incubated for different times (12 h, 24 h, and 48 h) at different pH environments (4.0, 7.4, and 9.5) at room temperature.
Stability of Mito-SilylDCA. A combination of HPLC and LC-MS analytical techniques were employed to understand the stability of Mito-SilylDCA in different physiological environments. A solution of Mito-SilylDCA or Mito-DCA in DMF-water (2/1, v/v) was incubated for 12, 24, and 48 h at different pH environments of 4.0, 7.4, and 9.5 at room temperature and the degradation behavior of the compounds was analyzed with HPLC and LC-MS (FIGS. 2A and 2B). […] After 12 h, more than 60% of compounds are decomposed at pH 7.4, which should be due to the hydrolysis of DCA and the silyl chain. […] Both Mito-DCA and Mito-SilylDCA were unstable in alkaline conditions and the compounds decomposed easily. […] The better stability of Mito-SilylDCA compared to Mito-DCA would be beneficial for the long-term storage and further application in biological environment.

Series [4] is described as follows: Chemical stability at different pH by HPLC and LC-MS (Example 2). The class given is physicochemical. Particulars: DMF/water (1/1, v/v), 24 h, pH 4.5, 5.5, 6.5, 7.4, 8.5, room temperature. How it is done: Stability of Mito-SilylDCA. With Mito-SilylDCA in hand, the chemical stability was checked to ensure the efficacy of drug in different physiological environments. A mixed solution of Mito-SilylDCA in DMF/water (1/1, v/v) was incubated for 24 h in different pH environment (4.5, 5.5, 6.5, 7.4, 8.5) at room temperature. Then the solutions were measured with HPLC and LC-MS to check the degradation behavior of the compounds.

Entries after “also recorded” stand apart in the source; their conditions may differ.

Here are results for 4 compounds from patent US20260232707A1, “METABOLIC INHIBITORS AND METHODS OF MAKING AND USING THEREOF” (UNIVERSITY OF MIAMI, priority 2023, published 2026).

In the case of `CCCCCCCCCCCCCCCCCC[Si](C)(C)OCC(COC(=O)C(Cl)Cl)(COC(=O)C(Cl)Cl)NC(=O)CCCCC[P+](c1ccccc1)(c1ccccc1)c1ccccc1` [Mito-SilylDCA], in series [1], the “glycolytic inhibitory properties compared to NaDCA” value is recorded as “significantly higher”. Besides, in series [1] (200 μM), the “glycolysis inhibition capability compared to Mito-DCA” value is reported as “not significantly decreased” and the “glycolysis inhibition (ECAR)” value is “significant inhibition of glycolysis”. Further, in series [2], the “accumulation in the tumor” value was “a significant portion of Mito-SilylDCA accumulated in the tumor”; the “biodistribution: organs in which present” value was “liver, tumor mass, brain, kidney, and spleen”. The “decomposition compared with Mito-DCA” value in series [3] (acidic conditions (pH 4.0), period of 24 h) was “slower than Mito-DCA”. In series [3], the “degradation / stability at acidic pH” value is “relatively slow degradation; also recorded: most stable at an acidic pH”, the “stability in alkaline conditions” value is on record as “unstable” and the “hydrolysis in neutral conditions” value is “hydrolyzed in a short time”. Besides, in series [4], the chemical stability result was “stable in neural and weak acidic conditions”.
For `CCCCCCCCCCCCCCCCCC[Si](C)(C)OC` [methoxyl(octadecyldimethyl)silane, reference compound], the “glycolysis inhibition (ECAR)” value in series [1] (200 μM) was “No detectable changes in glycolysis levels”.
In the case of `O=C(CCCCC[P+](c1ccccc1)(c1ccccc1)c1ccccc1)NC(COC(=O)C(Cl)Cl)(COC(=O)C(Cl)Cl)COC(=O)C(Cl)Cl` [Mito-DCA, reference compound], the “glycolytic inhibitory properties compared to NaDCA” value in series [1] is “significantly higher”. Moreover, in series [1] (200 μM), the “glycolysis inhibition (ECAR)” value is on record as “significant glycolysis inhibition”. Besides, in series [3], the “degradation / stability at acidic pH” value is listed as “relatively slow degradation”, the “stability in alkaline conditions” value is “unstable” and the “hydrolysis in neutral conditions” value is reported as “hydrolyzed in a short time”.
With `O=C(O)CCCCC[P+](c1ccccc1)(c1ccccc1)c1ccccc1.[Br-]` [TPP-(CH2)5—COOH), (5-carboxypentyl)triphenylphosphonium bromide, reference compound], the “glycolysis inhibition (ECAR)” value in series [1] (200 μM) was “No detectable changes in glycolysis levels”.
